Test results as given in ChEMBL document CHEMBL2331439 (J Med Chem, 2013).

Columns and labels:
[1] = biological target: MAP kinase-activated protein kinase 2 (Homo sapiens, UniProt P49137); experiment: Inhibition of recombinant MAPKAPK2 (unknown origin) by FRET-based Z'-LYTE assay
[2] = biological target: Vascular endothelial growth factor receptor 2 (Homo sapiens, UniProt P35968); experiment: Inhibition of recombinant KDR (unknown origin) by FRET-based Z'-LYTE assay
[3] = biological target: Mitogen-activated protein kinase 14 (Homo sapiens, UniProt Q16539); experiment: Inhibition of recombinant MAPK14 (unknown origin) by FRET-based Z'-LYTE assay
Sequence of Mitogen-activated protein kinase 14 (Q16539 whole entry): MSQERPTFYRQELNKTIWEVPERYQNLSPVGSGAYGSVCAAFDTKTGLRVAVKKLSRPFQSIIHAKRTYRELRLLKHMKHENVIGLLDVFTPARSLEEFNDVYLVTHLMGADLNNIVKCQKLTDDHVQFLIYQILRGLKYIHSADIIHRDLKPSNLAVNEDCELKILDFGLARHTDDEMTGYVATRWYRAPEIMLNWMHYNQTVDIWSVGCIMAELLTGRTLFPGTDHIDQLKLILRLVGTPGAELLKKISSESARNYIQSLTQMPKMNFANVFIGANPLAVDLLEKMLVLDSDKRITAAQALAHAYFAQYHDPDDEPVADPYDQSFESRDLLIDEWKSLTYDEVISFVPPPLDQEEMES

[4] = biological target: T1, Serine/threonine-protein kinase Nek1 (Homo sapiens, UniProt Q96PY6); experiment: Inhibition of recombinant NEK1 (unknown origin) by FRET-based Z'-LYTE assay
T1 sequence (Q96PY6 whole entry): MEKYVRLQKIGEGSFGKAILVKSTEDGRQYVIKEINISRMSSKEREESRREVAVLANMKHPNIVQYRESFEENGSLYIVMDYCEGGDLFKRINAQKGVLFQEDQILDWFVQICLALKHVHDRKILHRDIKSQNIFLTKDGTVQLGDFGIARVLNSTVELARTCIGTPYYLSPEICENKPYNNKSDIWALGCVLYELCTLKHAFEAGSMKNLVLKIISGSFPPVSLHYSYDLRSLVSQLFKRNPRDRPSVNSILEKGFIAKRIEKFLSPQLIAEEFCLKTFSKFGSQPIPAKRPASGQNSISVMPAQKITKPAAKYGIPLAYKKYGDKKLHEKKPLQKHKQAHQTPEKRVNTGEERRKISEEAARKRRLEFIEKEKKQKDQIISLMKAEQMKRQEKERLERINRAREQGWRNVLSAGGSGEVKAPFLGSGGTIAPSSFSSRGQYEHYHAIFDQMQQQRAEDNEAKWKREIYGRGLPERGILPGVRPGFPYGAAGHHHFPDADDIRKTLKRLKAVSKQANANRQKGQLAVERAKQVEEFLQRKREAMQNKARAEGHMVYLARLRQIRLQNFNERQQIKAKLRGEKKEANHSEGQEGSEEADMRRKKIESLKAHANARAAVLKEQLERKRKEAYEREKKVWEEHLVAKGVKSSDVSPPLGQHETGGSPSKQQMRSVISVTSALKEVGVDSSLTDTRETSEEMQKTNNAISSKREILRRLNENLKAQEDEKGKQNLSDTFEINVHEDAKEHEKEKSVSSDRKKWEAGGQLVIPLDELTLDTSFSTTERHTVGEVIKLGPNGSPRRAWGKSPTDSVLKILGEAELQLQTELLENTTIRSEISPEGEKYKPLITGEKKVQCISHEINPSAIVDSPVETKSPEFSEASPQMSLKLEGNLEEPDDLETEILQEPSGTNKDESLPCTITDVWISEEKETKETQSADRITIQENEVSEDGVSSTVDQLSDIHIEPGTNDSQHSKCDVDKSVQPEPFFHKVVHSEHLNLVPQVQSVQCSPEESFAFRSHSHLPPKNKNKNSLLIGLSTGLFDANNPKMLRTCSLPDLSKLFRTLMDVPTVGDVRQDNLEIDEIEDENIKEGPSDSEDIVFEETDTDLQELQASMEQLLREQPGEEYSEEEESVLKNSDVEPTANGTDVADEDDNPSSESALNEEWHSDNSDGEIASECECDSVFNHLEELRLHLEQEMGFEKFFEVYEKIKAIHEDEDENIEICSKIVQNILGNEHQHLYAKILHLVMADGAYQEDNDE

[5] = biological target: Dual specificity mitogen-activated protein kinase kinase 1 (Homo sapiens, UniProt Q02750); experiment: Inhibition of recombinant MEK1 (unknown origin) by cascade reaction assay
Sequence of Dual specificity mitogen-activated protein kinase kinase 1 (Q02750 whole entry): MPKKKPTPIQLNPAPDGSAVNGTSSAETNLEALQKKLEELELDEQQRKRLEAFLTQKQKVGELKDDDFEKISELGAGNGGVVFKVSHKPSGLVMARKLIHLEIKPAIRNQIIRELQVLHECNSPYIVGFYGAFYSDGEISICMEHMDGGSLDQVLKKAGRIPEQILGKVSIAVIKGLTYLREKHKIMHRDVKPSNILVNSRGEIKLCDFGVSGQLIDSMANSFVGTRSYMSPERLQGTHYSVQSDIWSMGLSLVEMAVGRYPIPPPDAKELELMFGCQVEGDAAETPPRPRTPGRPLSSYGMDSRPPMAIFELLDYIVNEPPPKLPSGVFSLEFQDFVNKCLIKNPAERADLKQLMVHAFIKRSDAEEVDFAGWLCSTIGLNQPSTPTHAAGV

[6] = biological target: Mitogen-activated protein kinase 1 (Homo sapiens, UniProt P28482); experiment: Inhibition of recombinant ERK2 (unknown origin) by FRET-based Z'-LYTE assay
Sequence of Mitogen-activated protein kinase 1 (P28482 whole entry): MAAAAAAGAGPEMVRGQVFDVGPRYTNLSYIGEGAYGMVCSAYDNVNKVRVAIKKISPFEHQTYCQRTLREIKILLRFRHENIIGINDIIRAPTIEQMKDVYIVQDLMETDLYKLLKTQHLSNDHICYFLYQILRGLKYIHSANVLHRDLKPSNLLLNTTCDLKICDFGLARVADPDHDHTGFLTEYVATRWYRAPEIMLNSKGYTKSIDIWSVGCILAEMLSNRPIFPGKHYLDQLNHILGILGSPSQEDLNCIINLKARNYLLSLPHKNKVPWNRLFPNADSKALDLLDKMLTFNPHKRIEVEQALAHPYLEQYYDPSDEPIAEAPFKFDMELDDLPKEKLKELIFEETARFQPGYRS

[7] = biological target: RAF proto-oncogene serine/threonine-protein kinase (Homo sapiens, UniProt P04049); experiment: Inhibition of recombinant RAF1 (unknown origin) by cascade reaction assay
Sequence of RAF proto-oncogene serine/threonine-protein kinase (P04049 whole entry): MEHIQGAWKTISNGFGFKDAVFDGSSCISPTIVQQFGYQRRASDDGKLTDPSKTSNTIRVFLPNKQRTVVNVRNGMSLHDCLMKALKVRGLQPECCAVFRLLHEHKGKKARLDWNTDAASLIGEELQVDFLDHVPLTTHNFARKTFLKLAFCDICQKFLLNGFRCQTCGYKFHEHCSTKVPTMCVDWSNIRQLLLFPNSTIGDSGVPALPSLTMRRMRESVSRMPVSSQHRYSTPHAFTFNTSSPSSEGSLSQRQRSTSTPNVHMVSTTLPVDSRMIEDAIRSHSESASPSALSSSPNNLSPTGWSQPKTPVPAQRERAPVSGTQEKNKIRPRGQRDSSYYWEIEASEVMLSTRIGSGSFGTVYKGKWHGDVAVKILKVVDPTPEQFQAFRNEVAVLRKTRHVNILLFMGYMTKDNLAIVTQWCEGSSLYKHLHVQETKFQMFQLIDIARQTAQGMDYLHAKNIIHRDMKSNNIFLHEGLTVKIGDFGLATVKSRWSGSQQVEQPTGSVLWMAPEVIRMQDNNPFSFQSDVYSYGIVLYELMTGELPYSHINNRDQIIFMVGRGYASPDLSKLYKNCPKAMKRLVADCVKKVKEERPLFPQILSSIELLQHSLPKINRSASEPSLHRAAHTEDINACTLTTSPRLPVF

[8] = biological target: AMP-activated protein kinase (AMPK) alpha-1/beta-1/gamma-1 (Homo sapiens, UniProt P54619+Q13131+Q9Y478); experiment: Inhibition of recombinant AMPK A1/B1/G1 (unknown origin) by FRET-based Z'-LYTE assay; format: protein-complex assay
Sequence of AMP-activated protein kinase (AMPK) alpha-1/beta-1/gamma-1 (P54619 whole entry): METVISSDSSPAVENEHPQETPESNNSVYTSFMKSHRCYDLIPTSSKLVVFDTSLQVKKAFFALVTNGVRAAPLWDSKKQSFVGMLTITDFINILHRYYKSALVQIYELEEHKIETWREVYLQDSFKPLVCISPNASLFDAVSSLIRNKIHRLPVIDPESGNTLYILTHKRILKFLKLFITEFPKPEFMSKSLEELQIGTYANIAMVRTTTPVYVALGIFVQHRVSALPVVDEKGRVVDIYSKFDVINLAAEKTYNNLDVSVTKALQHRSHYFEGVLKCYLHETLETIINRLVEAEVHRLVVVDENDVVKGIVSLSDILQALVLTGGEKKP
Sequence of AMP-activated protein kinase (AMPK) alpha-1/beta-1/gamma-1 (Q9Y478 whole entry): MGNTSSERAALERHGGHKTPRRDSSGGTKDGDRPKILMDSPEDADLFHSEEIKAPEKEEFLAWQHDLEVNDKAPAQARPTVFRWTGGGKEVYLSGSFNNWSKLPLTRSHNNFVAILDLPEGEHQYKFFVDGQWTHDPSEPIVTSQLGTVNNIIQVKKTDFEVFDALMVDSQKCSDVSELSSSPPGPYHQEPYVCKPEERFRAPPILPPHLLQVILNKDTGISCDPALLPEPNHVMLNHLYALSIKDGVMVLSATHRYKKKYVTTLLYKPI
Sequence of AMP-activated protein kinase (AMPK) alpha-1/beta-1/gamma-1 (Q13131 whole entry): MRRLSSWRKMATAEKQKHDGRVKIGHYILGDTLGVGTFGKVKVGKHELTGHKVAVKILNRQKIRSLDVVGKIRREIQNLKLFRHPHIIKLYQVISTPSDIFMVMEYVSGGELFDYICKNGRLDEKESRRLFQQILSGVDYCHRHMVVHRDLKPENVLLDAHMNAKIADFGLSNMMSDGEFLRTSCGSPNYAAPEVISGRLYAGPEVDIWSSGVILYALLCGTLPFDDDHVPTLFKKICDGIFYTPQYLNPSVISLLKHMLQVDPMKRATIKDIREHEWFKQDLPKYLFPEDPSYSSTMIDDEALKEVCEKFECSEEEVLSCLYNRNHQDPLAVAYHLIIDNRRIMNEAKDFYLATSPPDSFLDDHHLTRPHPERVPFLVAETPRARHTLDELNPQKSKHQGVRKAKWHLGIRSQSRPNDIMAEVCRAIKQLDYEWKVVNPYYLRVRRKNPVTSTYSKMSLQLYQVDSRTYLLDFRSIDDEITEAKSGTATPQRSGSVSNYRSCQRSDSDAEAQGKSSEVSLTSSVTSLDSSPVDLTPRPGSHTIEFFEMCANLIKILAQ

[9] = biological target: Ribosomal protein S6 kinase beta-1 (Homo sapiens, UniProt P23443); experiment: Inhibition of recombinant RPS6K1 (unknown origin) by FRET-based Z'-LYTE assay
Sequence of Ribosomal protein S6 kinase beta-1 (P23443 whole entry): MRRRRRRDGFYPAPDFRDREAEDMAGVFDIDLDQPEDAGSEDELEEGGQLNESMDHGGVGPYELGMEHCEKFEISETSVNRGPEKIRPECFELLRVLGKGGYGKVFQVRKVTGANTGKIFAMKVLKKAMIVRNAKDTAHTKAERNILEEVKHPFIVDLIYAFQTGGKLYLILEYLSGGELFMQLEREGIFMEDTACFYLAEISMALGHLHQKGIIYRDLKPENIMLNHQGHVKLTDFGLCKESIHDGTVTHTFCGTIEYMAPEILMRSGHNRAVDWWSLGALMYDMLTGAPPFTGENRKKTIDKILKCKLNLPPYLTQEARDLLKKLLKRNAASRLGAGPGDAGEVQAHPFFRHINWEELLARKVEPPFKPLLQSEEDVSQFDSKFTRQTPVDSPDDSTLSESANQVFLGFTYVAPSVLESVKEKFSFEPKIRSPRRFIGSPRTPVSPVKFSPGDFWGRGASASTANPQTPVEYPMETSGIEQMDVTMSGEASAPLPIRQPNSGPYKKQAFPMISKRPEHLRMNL

[10] = biological target: RAC-beta serine/threonine-protein kinase (Homo sapiens, UniProt P31751); experiment: Inhibition of recombinant AKT2 (unknown origin) by FRET-based Z'-LYTE assay
Sequence of RAC-beta serine/threonine-protein kinase (P31751 whole entry): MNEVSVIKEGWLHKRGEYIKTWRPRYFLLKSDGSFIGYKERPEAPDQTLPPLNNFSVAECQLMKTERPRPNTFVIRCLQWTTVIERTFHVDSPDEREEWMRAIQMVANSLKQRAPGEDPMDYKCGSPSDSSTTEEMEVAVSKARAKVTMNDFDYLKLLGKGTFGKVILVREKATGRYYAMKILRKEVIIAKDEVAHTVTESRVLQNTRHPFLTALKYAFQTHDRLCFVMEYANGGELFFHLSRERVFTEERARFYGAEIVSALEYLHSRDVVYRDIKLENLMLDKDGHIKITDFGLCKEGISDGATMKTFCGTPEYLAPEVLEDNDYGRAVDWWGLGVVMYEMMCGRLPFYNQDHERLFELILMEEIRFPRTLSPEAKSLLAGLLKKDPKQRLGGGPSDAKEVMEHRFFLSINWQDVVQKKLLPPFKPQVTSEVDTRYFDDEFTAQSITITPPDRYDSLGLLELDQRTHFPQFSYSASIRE

[11] = biological target: T2, Inhibitor of nuclear factor kappa-B kinase subunit beta (Homo sapiens, UniProt O14920); experiment: Inhibition of recombinant IKBKB (unknown origin) by FRET-based Z'-LYTE assay
T2 sequence (O14920 whole entry): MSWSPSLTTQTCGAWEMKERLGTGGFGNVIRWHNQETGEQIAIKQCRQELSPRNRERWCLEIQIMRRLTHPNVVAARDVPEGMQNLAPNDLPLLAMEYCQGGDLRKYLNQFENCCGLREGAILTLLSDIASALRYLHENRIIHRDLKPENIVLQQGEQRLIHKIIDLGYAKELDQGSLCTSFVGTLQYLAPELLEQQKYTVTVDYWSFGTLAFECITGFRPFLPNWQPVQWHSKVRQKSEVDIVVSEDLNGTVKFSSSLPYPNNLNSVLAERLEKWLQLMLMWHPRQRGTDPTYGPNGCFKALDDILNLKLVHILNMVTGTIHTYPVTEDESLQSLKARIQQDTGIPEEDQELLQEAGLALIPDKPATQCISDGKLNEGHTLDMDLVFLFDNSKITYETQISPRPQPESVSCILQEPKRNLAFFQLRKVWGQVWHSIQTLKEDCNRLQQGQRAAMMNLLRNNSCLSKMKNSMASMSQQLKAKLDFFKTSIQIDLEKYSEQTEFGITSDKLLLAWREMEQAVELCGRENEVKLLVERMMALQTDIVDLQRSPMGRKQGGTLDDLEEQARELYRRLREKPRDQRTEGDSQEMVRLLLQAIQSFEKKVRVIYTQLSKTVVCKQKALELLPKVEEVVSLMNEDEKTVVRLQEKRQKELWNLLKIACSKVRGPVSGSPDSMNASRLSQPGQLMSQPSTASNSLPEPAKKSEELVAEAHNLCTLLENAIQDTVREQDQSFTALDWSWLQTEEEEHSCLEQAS

[12] = biological target: RAC-alpha serine/threonine-protein kinase (Homo sapiens, UniProt P31749); experiment: Inhibition of recombinant AKT1 (unknown origin) by FRET-based Z'-LYTE assay
Sequence of RAC-alpha serine/threonine-protein kinase (P31749 whole entry): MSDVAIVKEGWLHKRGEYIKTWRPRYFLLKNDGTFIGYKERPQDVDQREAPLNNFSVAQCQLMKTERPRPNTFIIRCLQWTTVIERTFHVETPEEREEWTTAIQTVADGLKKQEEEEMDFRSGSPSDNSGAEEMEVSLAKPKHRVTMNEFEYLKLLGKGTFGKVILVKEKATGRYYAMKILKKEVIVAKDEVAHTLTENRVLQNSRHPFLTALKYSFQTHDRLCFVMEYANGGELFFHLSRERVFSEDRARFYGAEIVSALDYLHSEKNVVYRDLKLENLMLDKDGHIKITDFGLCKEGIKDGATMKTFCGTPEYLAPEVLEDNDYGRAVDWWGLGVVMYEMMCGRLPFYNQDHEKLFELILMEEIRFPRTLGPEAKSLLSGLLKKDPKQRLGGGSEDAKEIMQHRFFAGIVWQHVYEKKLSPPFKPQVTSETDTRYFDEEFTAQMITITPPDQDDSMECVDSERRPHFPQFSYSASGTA

Sequence of MAP kinase-activated protein kinase 2 (P49137 whole entry): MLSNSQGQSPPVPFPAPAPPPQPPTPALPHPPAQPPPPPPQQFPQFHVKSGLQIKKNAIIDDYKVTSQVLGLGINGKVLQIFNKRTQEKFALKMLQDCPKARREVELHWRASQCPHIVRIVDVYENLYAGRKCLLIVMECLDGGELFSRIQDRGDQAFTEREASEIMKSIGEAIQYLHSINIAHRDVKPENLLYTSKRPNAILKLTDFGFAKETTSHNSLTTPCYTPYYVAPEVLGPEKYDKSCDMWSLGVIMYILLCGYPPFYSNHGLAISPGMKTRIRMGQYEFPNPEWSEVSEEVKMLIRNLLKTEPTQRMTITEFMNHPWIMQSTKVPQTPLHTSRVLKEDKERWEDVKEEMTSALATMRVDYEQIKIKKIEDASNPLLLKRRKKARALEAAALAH

IC50 [1] [µM] | IC50 [2] [µM] | IC50 [3] [µM] | IC50 [4] [µM] | IC50 [5] [µM] | IC50 [6] [µM] | IC50 [7] [µM] | IC50 [8] [µM] | IC50 [9] [µM] | IC50 [10] [µM] | IC50 [11] [µM] | IC50 [12] [µM] | SMILES
16 | 6.5 | > 100 | 14 | 30 | 20 | 8.5 | 26 | 12 | 3.3 | 34 | 3.6 | O=C1/C(=C/c2ccccn2)CSC/C1=C\c1ccccn1
> 100 |  | > 100 |  |  | > 100 | > 100 |  | > 100 | > 100 | 15 |  | CN1C/C(=C\c2ccccn2)C(=O)[C@H](Cc2ccccn2)C1
9.8 | 1.3 | > 100 | 3.5 | 9 | 27 |  | 2.5 | 6 | 1.9 | 4 | 2.6 | CN1C/C(=C\c2ccccn2)C(=O)/C(=C/c2ccccn2)C1
> 100 |  | > 100 |  |  | > 100 | > 100 |  | > 100 | > 100 | 15 |  | CN1C/C(=C\c2ccccn2)C(=O)[C@@H](Cc2ccccn2)C1
